Patent publication US8802597B2, “Herbicidal pyrimidines” (E I du Pont de Nemours and Company, priority 2003, dated 2014)
Where two headings read alike, the source gives them in different places.

How the values were obtained:
Assay type in all cases: in vivo
[1] = tested on: morningglory (Ipomoea coccinea); test: Test C pre/postemergence; conditions: Ipomoea; for pest or weed control at 31 g/ha: 31 g ai/ha; for pest or weed control at 62 g/ha: 62 g ai/ha; for pest or weed control at 125 g/ha: 125 g ai/ha; for pest or weed control at 250 g/ha: 250 g ai/ha
In short: (§1)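 Injury scored visually 12–14 days after application on 0–100 scale (100 = complete control), relative to controls. Compounds, formulated with surfactant in non-phytotoxic solvent, applied to soil at planting (pre) or to 1- to 4-leaf plants 2–18 cm tall (post) in greenhouse.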

[2] = tested on: pigweed (Amaranthus retroflexus); test: Test C pre/postemergence; conditions: Amaranthus retroflexus; for pest or weed control at 31 g/ha: 31 g ai/ha; for pest or weed control at 62 g/ha: 62 g ai/ha; for pest or weed control at 125 g/ha: 125 g ai/ha; for pest or weed control at 250 g/ha: 250 g ai/ha
In short: as §1

[3] = tested on: soybean (Glycine max); test: Test C pre/postemergence; conditions: Glycine max; for plant injury at 31 g/ha: 31 g ai/ha; for plant injury at 62 g/ha: 62 g ai/ha; for plant injury at 125 g/ha: 125 g ai/ha; for plant injury at 250 g/ha: 250 g ai/ha
In short: as §1

[4] = tested on: woolly cupgrass (Eriochloa villosa); test: Test C pre/postemergence; conditions: Eriochloa villosa; for pest or weed control at 31 g/ha: 31 g ai/ha; for pest or weed control at 62 g/ha: 62 g ai/ha; for pest or weed control at 125 g/ha: 125 g ai/ha; for pest or weed control at 250 g/ha: 250 g ai/ha
In short: as §1

[5] = tested on: yellow nutsedge (Cyperus esculentus); test: Test C pre/postemergence; conditions: Cyperus; for pest or weed control at 31 g/ha: 31 g ai/ha; for pest or weed control at 62 g/ha: 62 g ai/ha; for pest or weed control at 125 g/ha: 125 g ai/ha; for pest or weed control at 250 g/ha: 250 g ai/ha
In short: as §1

[6] = tested on: chickweed (Stellaria media); test: Test C postemergence; conditions: Stellaria media, post-emergence
In short: as §1

[7] = post-emergence, Postemergence, scale 0 to 100 (0 no effect, 100 complete control), read-out: Morningglory plant response rating
[8] = pre-emergence, Preemergence, scale 0 to 100, 0 no effect, 100 complete control, read-out: Plant response rating, Morningglory
[9] = pre-emergence, Preemergence, scale 0 to 100, read-out: Plant response rating, Morningglory
[10] = post-emergence, Postemergence, scale 0 to 100 (0 no effect, 100 complete control), read-out: Pigweed plant response rating
[11] = pre-emergence, Preemergence, scale 0 to 100, 0 no effect, 100 complete control, read-out: Plant response rating, Pigweed
[12] = pre-emergence, Preemergence, scale 0 to 100, read-out: Plant response rating, Pigweed
[13] = post-emergence, Postemergence, scale 0 to 100 (0 no effect, 100 complete control), read-out: Soybean plant response rating
[14] = pre-emergence, Preemergence, scale 0 to 100, 0 no effect, 100 complete control, read-out: Plant response rating, Soybean
[15] = pre-emergence, Preemergence, scale 0 to 100, read-out: Plant response rating, Soybean
[16] = post-emergence, Postemergence, scale 0 to 100 (0 no effect, 100 complete control), read-out: Cupgrass, Woolly plant response rating
[17] = pre-emergence, Preemergence, scale 0 to 100, 0 no effect, 100 complete control, read-out: Plant response rating, Cupgrass, Woolly
[18] = pre-emergence, Preemergence, scale 0 to 100, read-out: Plant response rating, Cupgrass, Woolly
[19] = post-emergence, Postemergence, scale 0 to 100 (0 no effect, 100 complete control), read-out: Nutsedge, Yellow plant response rating
[20] = pre-emergence, Preemergence, scale 0 to 100, 0 no effect, 100 complete control, read-out: Plant response rating, Nutsedge, Yellow
[21] = pre-emergence, Preemergence, scale 0 to 100, read-out: Plant response rating, Nutsedge, Yellow

SMILES: CCOC(=O)c1nc(C2CC2)nc(N)c1F [Compound 30]
- pest or weed control at 31 g/ha ([1]; post-emergence, Postemergence, read-out: Plant response rating (scale of 0 to 100), Morningglory): 90%
- pest or weed control at 62 g/ha [1, 7]: 90%
- pest or weed control at 125 g/ha [1, 7]: 95%
- pest or weed control at 250 g/ha ([1]; post-emergence, Postemergence, scale 0 to 100, read-out: Plant response rating, Morningglory): 95%
- pest or weed control at 31 g/ha [1, 8]: 0%
- pest or weed control at 62 g/ha [1, 8]: 85%
- pest or weed control at 125 g/ha [1, 9]: 90%
- pest or weed control at 250 g/ha [1, 9]: 100%
- pest or weed control at 31 g/ha ([2]; post-emergence, Postemergence, read-out: Plant response rating (scale of 0 to 100), Pigweed): 60%
- pest or weed control at 62 g/ha [2, 10]: 70%
- pest or weed control at 125 g/ha [2, 10]: 80%
- pest or weed control at 250 g/ha ([2]; post-emergence, Postemergence, scale 0 to 100, read-out: Plant response rating, Pigweed): 90%
- pest or weed control at 31 g/ha [2, 11]: 0%
- pest or weed control at 62 g/ha [2, 11]: 30%
- pest or weed control at 125 g/ha [2, 12]: 80%
- pest or weed control at 250 g/ha [2, 12]: 90%
- plant injury at 31 g/ha ([3]; post-emergence, Postemergence, read-out: Plant response rating (scale of 0 to 100), Soybean): 80%
- plant injury at 62 g/ha [3, 13]: 90%
- plant injury at 125 g/ha [3, 13]: 90%
- plant injury at 250 g/ha ([3]; post-emergence, Postemergence, scale 0 to 100, read-out: Plant response rating, Soybean): 95%
- plant injury at 31 g/ha [3, 14]: 0%
- plant injury at 62 g/ha [3, 14]: 5%
- plant injury at 125 g/ha [3, 15]: 5%
- plant injury at 250 g/ha [3, 15]: 70%
- pest or weed control at 31 g/ha ([4]; post-emergence, Postemergence, read-out: Plant response rating (scale of 0 to 100), Cupgrass, Woolly): 0%
- pest or weed control at 62 g/ha [4, 16]: 0%
- pest or weed control at 125 g/ha [4, 16]: 0%
- pest or weed control at 250 g/ha ([4]; post-emergence, Postemergence, scale 0 to 100, read-out: Plant response rating, Cupgrass, Woolly): 40%
- pest or weed control at 31 g/ha [4, 17]: 0%
- pest or weed control at 62 g/ha [4, 17]: 5%
- pest or weed control at 125 g/ha [4, 18]: 45%
- pest or weed control at 250 g/ha [4, 18]: 50%
- pest or weed control at 31 g/ha ([5]; post-emergence, Postemergence, read-out: Plant response rating (scale of 0 to 100), Nutsedge, Yellow): 0%
- pest or weed control at 62 g/ha [5, 19]: 0%
- pest or weed control at 125 g/ha [5, 19]: 0%
- pest or weed control at 250 g/ha ([5]; post-emergence, Postemergence, scale 0 to 100, read-out: Plant response rating, Nutsedge, Yellow): 5%
- pest or weed control at 31 g/ha [5, 20]: 0%
- pest or weed control at 62 g/ha [5, 20]: 0%
- pest or weed control at 125 g/ha [5, 21]: 0%
- pest or weed control at 250 g/ha [5, 21]: 0%
- pest or weed control at 31 g/ha ([6]; 31 g ai/ha, read-out: Plant response rating (scale of 0 to 100), Chickweed): 40%
- pest or weed control at 62 g/ha ([6]; 62 g ai/ha, scale 0 to 100 (0 no effect, 100 complete control), read-out: Chickweed plant response rating): 50%
- pest or weed control at 125 g/ha ([6]; 125 g ai/ha, scale 0 to 100 (0 no effect, 100 complete control), read-out: Chickweed plant response rating): 65%
- pest or weed control at 250 g/ha ([6]; 250 g ai/ha, scale 0 to 100, read-out: Plant response rating, Chickweed): 85%
